Measurements from US8524707B2, “Bicyclic pyrazoles as protein kinase inhibitors” (Nerviano Medical Sciences S.r.l., priority 2008, dated 2013).
Where two headings read alike, the source gives them in different places.

Tests used:
Assay type in all cases: cell-based
[1] = test system: human melanoma cells A375 (with a mutated B-RAF); assay: In vitro cell proliferation assay, A375; conditions: A-375, 72 hours, cellular ATP monitoring
Experimental: (§1) Exponentially growing human melanoma cells A375 (with a mutated B-RAF) and human melanoma cells Mewo (with wild-type B-Raf) were seeded and incubated at 37° C. in a humidified 5% CO2 atmosphere. After 24 hours, scalar doses of the compound were added to the medium and cells oncubated for 72 hours. At the end of treatment, cells were washed and counted. Cell number was determined by a cellular adenosine triphosphate monitoring system. Cell proliferation was compared to control cells and the concentration inhibiting cell growth by 50% was calculated.

[2] = test system: human melanoma cells Mewo (with wild-type B-Raf); assay: In vitro cell proliferation assay, Mewo; conditions: 72 hours, cellular ATP monitoring
Experimental: as §1

[3] = test system: p-MAPK (T202/Y204) in A375 human melanoma cells, having a mutated B-RAF; assay: p-MAPK (T202/Y204) ArrayScan assay
Experimental: A375 human melanoma cells, having a mutated B-RAF, are seeded in 384-well poly-lysine coated plates (Matrix) at a density of 1000 cells/well with appropriate medium supplemented with 10% FCS and incubated for 16-24 hours. Cells are treated for 1.5 or 2 hours with increasing doses of compounds (starting dose 10 μM, dilution factor 2.5). At the end of the treatment cells are fixed with p-formaldehyde 3.7% for 15-30 min, then washed twice with D-PBS ([…]) and permeabilized with D-PBS containing 0.1% Triton X-100 and 1% BSA (Sigma-Aldrich) for 15 minutes at room temperature (staining solution). […] After removal of antibody solution, the anti-mouse Cy™2-conjugated (Green) secondary antibody (Amersham) diluted 1:500 in staining solution containing […] DAPI is added. The plate is incubated for 1 hour at 37° C., washed twice and red with Cellomics' ArrayScan VTI (4 fields/well, CytoNucTrans algorithm).
The parameter “MEAN_RingAvgIntenCh2”, which measures the mean cytoplasmatic fluorescence intensity associated to p-MAPK staining, is reported as the final result.

[4] = A-375, A375 cells treated 1.5 or 2 hours, p-MAPK staining, MEAN_RingAvgIntenCh2, read-out: Array Scan A375 IC50
[5] = A-375, read-out: Array Scan A375 IC50

IC50 [1] [nM] | IC50 [2] [µM] | IC50 [3, 4] [nM] | SMILES | IC50 [3, 5] [nM]
2480 | 3.59 | 7370 | O=C(Nc1ccc(Cl)cc1)Nc1cccc(-c2nn3c(c2-c2ccncc2)SCCC3)c1 [compound 1, 1-(4-chloro-phenyl)-3-[3-(3-pyridin-4-yl-6,7-dihydro-5H-pyrazolo[5,1-b][1,3]thiazin-2-yl)-phenyl]-urea] | 
3690 | 7.25 | 5570 | Cc1ccc(NC(=O)Nc2cccc(-c3nn4c(c3-c3ccncc3)SCCC4)c2)cc1 [compound 2, 1-[3-(3-pyridin-4-yl-6,7-dihydro-5H-pyrazolo[5,1-b][1,3]thiazin-2-yl)-phenyl]-3-p-tolyl-urea] | 
910 | 2.54 | 770 | O=C(Nc1ccc(C(F)(F)F)cc1)Nc1cccc(-c2nn3c(c2-c2ccncc2)SCCC3)c1 [compound 3, 1-[3-(3-pyridin-4-yl-6,7-dihydro-5H-pyrazolo[5,1-b][1,3]thiazin-2-yl)-phenyl]-3-(4-trifluoromethyl-phenyl)-urea] | 
7510 | > 10 | 1620 | O=S(=O)(Nc1cccc(-c2nn3c(c2-c2ccncc2)SCCC3)c1)c1cccc(F)c1 [compound 4, 3-fluoro-N-[3-(3-pyridin-4-yl-6,7-dihydro-5H-pyrazolo[5,1-b][1,3]thiazin-2-yl)-phenyl]-benzenesulfonamide] | 
2330 | 5.95 | 1380 | O=C(Nc1ccc(Cl)cc1)Nc1cccc(-c2nn3c(c2-c2ccncc2)SCC3)c1 [compound 6, 1-(4-chloro-phenyl)-3-[3-(7-pyridin-4-yl-2,3-dihydro-pyrazolo[5,1-b]thiazol-6-yl)-phenyl]-urea] | 
950 | > 10 | 750 | Oc1cccc(-c2nn3c(c2-c2ccncc2)SCC3)c1 [compound 7, 3-(7-pyridin-4-yl-2,3-dihydro-pyrazolo[5,1-b]thiazol-6-yl)-phenol] | 
1280 | 4.29 | 460 | O=S(=O)(Nc1cccc(-c2nn3c(c2-c2ccncc2)SCCC3)c1)c1cc(F)ccc1F [compound 9, 2,5-difluoro-N-[3-(3-pyridin-4-yl-6,7-dihydro-5H-pyrazolo[5,1-b][1,3]thiazin-2-yl)-phenyl]-benzenesulfonamide] | 
1980 | > 10 | 620 | O=S1(=O)CCn2nc(-c3cccc(O)c3)c(-c3ccncc3)c21 [compound 10, 3-(1,1-dioxo-7-pyridin-4-yl-2,3-dihydro-pyrazolo[5,1-b]thiazol-6-yl)-phenol] | 
660 | > 10 | 260 | O=S(=O)(Nc1cccc(-c2nn3c(c2-c2ccncc2)SCC3)c1)c1cc(F)ccc1F [compound 11, 2,5-difluoro-N-[3-(7-pyridin-4-yl-2,3-dihydro-pyrazolo[5,1-b]thiazol-6-yl)-phenyl]-benzenesulfonamide] | 
3880 | > 10 | 6390 | O=C(Cc1ccc(C(F)(F)F)cc1)Nc1cccc(-c2nn3c(c2-c2ccncc2)SCCC3)c1 [compound 12, N-[3-(3-pyridin-4-yl-6,7-dihydro-5H-pyrazolo[5,1-b][1,3]thiazin-2-yl)-phenyl]-2-(4-trifluoromethyl-phenyl)-acetamide] | 
9280 | > 10 | 3030 | O=S(=O)(Nc1cccc(-c2nn3c(c2-c2ccncc2)SCCC3)c1)c1ccco1 [compound 13, furan-2-sulfonic acid [3-(3-pyridin-4-yl-6,7-dihydro-5H-pyrazolo[5,1-b][1,3]thiazin-2-yl)-phenyl]-amide] | 
7070 | > 10 | 4690 | O=S(=O)(Nc1cccc(-c2nn3c(c2-c2ccncc2)SCCC3)c1)c1ccsc1 [compound 14, thiophene-3-sulfonic acid [3-(3-pyridin-4-yl-6,7-dihydro-5H-pyrazolo[5,1-b][1,3]-thiazin-2-yl)-phenyl]-amide] | 
680 | 3.09 | 480 | CC(C)(C)c1ccc(NC(=O)c2cccc(-c3nn4c(c3-c3ccncc3)SCC4)c2)cc1 [compound 15, N-(4-tert-butyl-phenyl)-3-(7-pyridin-4-yl-2,3-dihydro-pyrazolo[5,1-b]thiazol-6-yl)-benzamide] | 
1340 | > 10 | 1170 | NC(=O)c1csc2c(-c3ccncc3)c(-c3cccc(NS(=O)(=O)c4cc(F)ccc4F)c3)nn12 [compound 17, 6-[3-(2,5-difluoro-benzenesulfonylamino)-phenyl]-7-pyridin-4-yl-pyrazolo[5,1-b]thiazole-3-carboxylic acid amide] | 
2160 | > 10 | 2290 | CC(C)(C)c1ccc(NC(=O)Nc2cccc(-c3nn4c(c3-c3ccncc3)SCC4)c2)cc1 [compound 18, 1-(4-tert-butyl-phenyl)-3-[3-(7-pyridin-4-yl-2,3-dihydro-pyrazolo[5,1-b]thiazol-6-yl)-phenyl]-urea] | 
7680 | > 10 | 4690 | O=C(Nc1ccc(C(F)(F)F)cc1)Nc1cccc(-c2nn3c(c2-c2ccncc2)[S+]([O-])CC3)c1 (stereo not drawn) [compound 19, 1-[3-(1-oxo-7-pyridin-4-yl-2,3-dihydro-pyrazolo[5,1-b]thiazol-6-yl)-phenyl]-3-(4-trifluoromethyl-phenyl)-urea] | 
1170 | > 10 | 360 | Oc1cccc(-c2nn3ccsc3c2-c2ccncc2)c1 [compound 20, 3-(7-pyridin-4-yl-pyrazolo[5,1-b]thiazol-6-yl)-phenol] | 
3130 | > 10 | 210 | O=S(=O)(Nc1cccc(-c2nn3ccsc3c2-c2ccncc2)c1)c1cc(F)ccc1F [compound 21, 2,5-difluoro-N-[3-(7-pyridin-4-yl-pyrazolo[5,1-b]thiazol-6-yl)-phenyl]-benzenesulfonamide] | 
1030 | 5.41 | 440 | O=C(Nc1ccc(C(F)(F)F)cc1)Nc1cccc(-c2nn3ccsc3c2-c2ccncc2)c1 [compound 22, 1-[3-(7-pyridin-4-yl-pyrazolo[5,1-b]thiazol-6-yl)-phenyl]-3-(4-trifluoromethyl-phenyl)-urea] | 
290 | > 10 | 20 | O=S(=O)(Nc1ccc(F)c(-c2nn3c(c2-c2ccncc2)SCC3)c1F)c1cc(F)ccc1F [compound 23, N-[2,4-difluoro-3-(7-pyridin-4-yl-2,3-dihydro-pyrazolo[5,1-b]thiazol-6-yl)-phenyl]-2,5-difluoro-benzenesulfonamide] | 
1230 | 5.09 | 1460 | O=C(Nc1ccc(C(F)(F)F)cc1)c1cccc(-c2nn3c(c2-c2ccncc2)SCC3)c1 [compound 24, 3-(7-pyridin-4-yl-2,3-dihydro-pyrazolo[5,1-b]thiazol-6-yl)-N-(4-trifluoromethyl-phenyl)-benzamide] | 

SMILES | IC50 [1] [nM] | IC50 [2] [µM] | IC50 [3, 4] [nM] | IC50 [3, 5] [nM]
O=C(Nc1ccc(C(F)(F)F)cc1)Nc1cccc(-c2nn3c(c2-c2ccncc2)SCC3)c1 [compound 5, 1-[3-(7-pyridin-4-yl-2,3-dihydro-pyrazolo[5,1-b]thiazol-6-yl)-phenyl]-3-(4-trifluoromethyl-phenyl)urea] | 430 | 2.63 |  | 600
Oc1cccc(-c2nn3c(c2-c2ccncc2)SCCC3)c1 [compound 8, 3-(3-pyridin-4-yl-6,7-dihydro-5H-pyrazolo[5,1-b][1,3]thiazin-2-yl)-phenol] | 1510 | > 10 |  | 2040
